According to patent publication US20230077362A1 (CORTEVA AGRISCIENCE LLC, priority 2019, published 2023):
Where two headings read alike, the source gives them in different places.

Assays:
[1] = system: Beet Armyworm (Spodoptera exigua) ("BAW"), second instar larvae; experiment: Bioassay on beet armyworm (BAW), 128-well diet tray assay; format: in vivo; settings: for pest or weed control at 50 µg/cm2: Spodoptera exigua
Procedure, shortened: (§1)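 Sealed trays, 25° C., 14:10 light:dark, 5–7 d. Per-well % mortality recorded, mean of eight wells reported.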

[2] = system: Cabbage Looper (Trichoplusia ni) ("CL"), second instar larvae; experiment: Bioassay on cabbage looper (CL), 128-well diet tray assay; format: in vivo; settings: for pest or weed control at 50 µg/cm2: Trichoplusia ni
Procedure, shortened: as §1

[3] = read-out: BAW (Biological Results, rating)
[4] = read-out: CL (Biological Results, rating)

SMILES | pest or weed control at 50 µg/cm2 ([1]; read-out: BAW rating) [%] | pest or weed control at 50 µg/cm2 ([2]; read-out: CL rating) [%] | pest or weed control at 50 µg/cm2 [1, 3] [%] | pest or weed control at 50 µg/cm2 [2, 4] [%] | also measured
COC(C)c1ccc(C)cc1N1C(=O)CS/C1=N\C(=O)Nc1ccc(-n2cnc(-c3ccc(OC(F)(F)F)cc3)n2)cc1C (stereo not shown) [Compound J467, (Z)-1-(3-(2-(1-Methoxyethyl)-5-methylphenyl)-4-oxothiazolidin-2-ylidene)-3-(2-methyl-4-(3-(4-(trifluoromethoxy)phenyl)-1H-1,2,4-triazol-1-yl)phenyl)urea] | 50 to 100 | 50 to 100 |  |  | 
CC(C)c1ccc(N(C)C)cc1N1C(=O)CS/C1=N\C(=O)Nc1ccc(-c2ncn(-c3ccc(OC(F)(F)F)cc3)n2)cc1C(F)F [Compound J213, (Z)-1-(2-(Difluoromethyl)-4-(1-(4-(trifluoromethoxy)phenyl)-1H-1,2,4-triazol-3-yl)phenyl)-3-(3-(5-(dimethylamino)-2-isopropylphenyl)-4-oxothiazolidin-2-ylidene)urea] |  |  | 50 to 100 | 50 to 100 | 
CCc1cc(-c2ncn(-c3ccc(OC(F)(F)F)cc3)n2)ccc1NC(=O)/N=C1\SCC(=O)N1c1cc(N(C)C)ccc1C(C)C [Compound J83, (Z)-1-(3-(5-(Dimethylamino)-2-isopropylphenyl)-4-oxothiazolidin-2-ylidene)-3-(2-ethyl-4-(1-(4-(trifluoromethoxy)phenyl)-1H-1,2,4-triazol-3-yl)phenyl)urea] |  |  | 50 to 100 | 50 to 100 | 
Cc1ccc(COCCF)c(N2C(=O)CS/C2=N\C(=O)Nc2ccc(-c3ncn(-c4ccc(OC(F)(F)F)cc4)n3)cc2F)c1 [Compound J551] |  |  |  |  | BAW rating ([1]; Table ABC, species BAW, C = not tested, D = no activity noticed): A (50-100); CL rating ([2]; Table ABC, species CL, C = not tested, D = no activity noticed): A (50-100)
Cc1ccc(C(C)C)c(N2C(=O)CS/C2=N\C(=O)Nc2ccc(-c3cn(-c4ccc(S(=O)(=O)C(F)(F)F)cc4)cn3)cc2F)c1 [Compound J651, (Z)-1-(2-Fluoro-4-(1-(4-((trifluoromethyl)sulfonyl)phenyl)-1H-imidazol-4-yl)phenyl)-3-(3-(2-isopropyl-5-methylphenyl)-4-oxothiazolidin-2-ylidene)urea] | 50 to 100 | 50 to 100 |  |  | 
Cc1ccc(COCC(F)(F)F)c(N2C(=O)CS/C2=N\C(=O)Nc2ccc(-c3ncn(-c4ccc(C(F)(F)F)cn4)n3)cc2C(F)(F)F)c1 [Compound J304, (Z)-1-(3-(5-Methyl-2-((2,2,2-trifluoroethoxy)methyl)phenyl)-4-oxothiazolidin-2-ylidene)-3-(2-(trifluoromethyl)-4-(1-(5-(trifluoromethyl)pyridin-2-yl)-1H-1,2,4-triazol-3-yl)phenyl)urea] |  |  | 50 to 100 | 50 to 100 | 
Cc1ccc(OCCC(F)(F)F)c(N2C(=O)CS/C2=N\C(=O)Nc2ccc(-c3ncn(-c4ccc([S+]([O-])C(F)(F)F)cc4)n3)cc2F)c1 (stereo not shown) [Compound J382, (Z)-1-(2-Fluoro-4-(1-(4-((trifluoromethyl)sulfinyl)phenyl)-1H-1,2,4-triazol-3-yl)phenyl)-3-(3-(5-methyl-2-(3,3,3-trifluoropropoxy)phenyl)-4-oxothiazolidin-2-ylidene)urea] | 50 to 100 | 50 to 100 |  |  | 
CN(C)c1ccc(OCC(F)(F)F)c(N2C(=O)CS/C2=N\C(=O)Nc2ccc(-c3ncn(-c4ccc(OC(F)(F)F)cn4)n3)cc2F)c1 [Compound J263, (Z)-1-(3-(5-(Dimethylamino)-2-(2,2,2-trifluoroethoxy)phenyl)-4-oxothiazolidin-2-ylidene)-3-(2-fluoro-4-(1-(5-(trifluoromethoxy)pyridin-2-yl)-1H-1,2,4-triazol-3-yl)phenyl)urea] |  |  | 50 to 100 | 50 to 100 | 
Cc1ccc(C(F)(F)F)c(N2C(=O)CS/C2=N\C(=O)NC(C)Cc2ccc(-c3ncn(-c4ccc(OC(F)(F)F)cc4)n3)cc2)c1 (stereo not shown) [Compound H4] |  |  | 50 to 100 | 50 to 100 | 
CNc1ccc(C(C)C)c(N2C(=O)CS/C2=N\C(=O)Nc2ccc(-c3ncn(-c4ccc(OC(F)(F)F)cc4)n3)cc2F)c1 [Compound J85, (Z)-1-(2-Fluoro-4-(1-(4-(trifluoromethoxy)phenyl)-1H-1,2,4-triazol-3-yl)phenyl)-3-(3-(2-isopropyl-5-(methylamino)phenyl)-4-oxothiazolidin-2-ylidene)urea] |  |  | 50 to 100 | 50 to 100 | 
O=C(/N=C1\SCC(=O)N1c1ccccc1COCC(F)(F)F)Nc1ccc(-n2cnc(-c3ccc(OC(F)(F)F)cc3)n2)cc1Cl [Compound J732, (Z)-1-(2-Chloro-4-(3-(4-(trifluoromethoxy)phenyl)-1H-1,2,4-triazol-1-yl)phenyl)-3-(4-oxo-3-(2-((2,2,2-trifluoroethoxy)methyl)phenyl)thiazolidin-2-ylidene)urea] | 50 to 100 | 50 to 100 |  |  | 
COc1ccc(C(C)C)c(N2C(=O)CS/C2=N\C(=O)Nc2ccc(-c3ncn(-c4ccc(C(F)(F)F)cc4)n3)cc2C)c1 [Compound J8, (Z)-1-(3-(2-Isopropyl-5-methoxyphenyl)-4-oxothiazolidin-2-ylidene)-3-(2-methyl-4-(1-(4-(trifluoromethyl)phenyl)-1H-1,2,4-triazol-3-yl)phenyl)urea] |  |  | 50 to 100 | 50 to 100 | 
CCOCc1ccc(C)cc1N1C(=O)CS/C1=N\C(=O)Nc1ccc(-c2ncn(-c3ccc(C(F)(F)F)cn3)n2)cc1F [Compound J299, (Z)-1-(3-(2-(Ethoxymethyl)-5-methylphenyl)-4-oxothiazolidin-2-ylidene)-3-(2-fluoro-4-(1-(5-(trifluoromethyl)pyridin-2-yl)-1H-1,2,4-triazol-3-yl)phenyl)urea] |  |  | 50 to 100 | 50 to 100 | 
Cc1cc(-c2ncn(-c3ccc(S(=O)(=O)C(F)(F)F)cc3)n2)ccc1NC(=O)/N=C1\SCC(=O)N1c1cc(N(C)C)c(F)cc1C(C)C [Compound J375, (Z)-1-(3-(5-(Dimethylamino)-4-fluoro-2-isopropylphenyl)-4-oxothiazolidin-2-ylidene)-3-(2-methyl-4-(1-(4-((trifluoromethyl)sulfonyl)phenyl)-1H-1,2,4-triazol-3-yl)phenyl)urea] | 50 to 100 | 50 to 100 |  |  | 
Cc1ccc(-c2ccco2)c(N2C(=O)CS/C2=N\C(=O)Nc2ccc(-c3ncn(-c4ccc(OC(F)(F)F)cc4)n3)cc2C)c1 [Compound J488, (Z)-1-(3-(2-(Furan-2-yl)-5-methylphenyl)-4-oxothiazolidin-2-ylidene)-3-(2-methyl-4-(1-(4-(trifluoromethoxy)phenyl)-1H-1,2,4-triazol-3-yl)phenyl)urea] | 50 to 100 | 50 to 100 |  |  | 
Cc1ccc(COCC(F)F)c(N2C(=O)CS/C2=N\C(=O)Nc2ccc(-c3ncn(-c4ccc(OC(F)(F)F)cc4)n3)cc2F)c1 [Compound J401] | 50 to 100 | 50 to 100 |  |  | 
COc1ccc(C(C)C)c(N2C(=O)CS/C2=N\C(=O)Nc2ccc(-c3ncn(-c4ccc(OC(F)(F)F)cn4)n3)cc2C#N)c1 [Compound J268, (Z)-1-(2-Cyano-4-(1-(5-(trifluoromethoxy)pyridin-2-yl)-1H-1,2,4-triazol-3-yl)phenyl)-3-(3-(2-isopropyl-5-methoxyphenyl)-4-oxothiazolidin-2-ylidene)urea] |  |  | 50 to 100 | 50 to 100 | 
